# ChEMBL document CHEMBL1201862, “PubChem BioAssay data set” (2004)
# Active and inactive are the calls of the source.
# Assays:
# [1] = target: T1, Sentrin-specific protease 6 (Homo sapiens, UniProt Q9GZR1); format: functional;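 also: Luminescence-based dose-response confirmatory assay of SENP6 inhibition, following up an ultra-high-throughput screen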
# T1 sequence (Q9GZR1 whole entry): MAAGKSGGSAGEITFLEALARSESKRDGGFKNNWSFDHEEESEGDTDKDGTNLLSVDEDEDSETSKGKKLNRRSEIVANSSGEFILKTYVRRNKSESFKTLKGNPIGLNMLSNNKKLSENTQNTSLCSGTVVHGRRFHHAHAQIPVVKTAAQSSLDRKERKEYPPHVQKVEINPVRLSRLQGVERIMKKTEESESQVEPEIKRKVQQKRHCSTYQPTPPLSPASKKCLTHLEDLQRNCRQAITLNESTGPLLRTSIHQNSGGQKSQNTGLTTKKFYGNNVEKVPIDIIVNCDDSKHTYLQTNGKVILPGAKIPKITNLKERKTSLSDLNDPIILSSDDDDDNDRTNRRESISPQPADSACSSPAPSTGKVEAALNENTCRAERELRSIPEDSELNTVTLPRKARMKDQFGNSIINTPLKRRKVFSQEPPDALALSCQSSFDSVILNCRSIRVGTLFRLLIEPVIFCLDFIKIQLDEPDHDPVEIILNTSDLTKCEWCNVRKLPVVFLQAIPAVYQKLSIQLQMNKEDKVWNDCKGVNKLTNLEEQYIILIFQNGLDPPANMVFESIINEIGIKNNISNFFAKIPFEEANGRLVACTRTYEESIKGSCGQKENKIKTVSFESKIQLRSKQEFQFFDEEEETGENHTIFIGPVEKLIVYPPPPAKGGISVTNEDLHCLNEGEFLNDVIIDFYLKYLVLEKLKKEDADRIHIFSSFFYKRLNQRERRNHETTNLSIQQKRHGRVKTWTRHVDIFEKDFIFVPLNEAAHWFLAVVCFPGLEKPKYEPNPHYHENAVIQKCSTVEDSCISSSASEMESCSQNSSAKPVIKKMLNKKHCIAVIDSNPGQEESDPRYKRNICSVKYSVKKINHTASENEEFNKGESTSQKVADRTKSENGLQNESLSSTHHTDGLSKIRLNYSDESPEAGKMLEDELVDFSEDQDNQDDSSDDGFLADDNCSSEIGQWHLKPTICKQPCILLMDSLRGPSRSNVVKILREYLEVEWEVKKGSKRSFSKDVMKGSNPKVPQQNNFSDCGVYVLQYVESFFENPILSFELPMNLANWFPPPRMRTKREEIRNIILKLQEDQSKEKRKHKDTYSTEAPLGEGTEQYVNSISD
# [2] = target: T2, Sentrin-specific protease 8 (Homo sapiens, UniProt Q96LD8); format: functional;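 also: luminescence read-out of SENP8 inhibition, dose-response confirmation following an ultra-high-throughput screen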
# T2 sequence (Q96LD8 whole entry): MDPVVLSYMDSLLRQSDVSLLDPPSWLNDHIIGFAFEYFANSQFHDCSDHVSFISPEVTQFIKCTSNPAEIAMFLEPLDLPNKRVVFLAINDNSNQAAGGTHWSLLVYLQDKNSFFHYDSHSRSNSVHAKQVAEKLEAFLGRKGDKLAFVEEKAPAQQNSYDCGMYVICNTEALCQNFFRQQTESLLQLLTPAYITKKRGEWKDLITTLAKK
# [3] = target: T3, Caspase-3 (Homo sapiens, UniProt P42574); format: functional;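 also: Dose-response selectivity test against caspase-3 for candidate inhibitors of sentrin-specific proteases (SENPs)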
# T3 sequence (P42574 whole entry): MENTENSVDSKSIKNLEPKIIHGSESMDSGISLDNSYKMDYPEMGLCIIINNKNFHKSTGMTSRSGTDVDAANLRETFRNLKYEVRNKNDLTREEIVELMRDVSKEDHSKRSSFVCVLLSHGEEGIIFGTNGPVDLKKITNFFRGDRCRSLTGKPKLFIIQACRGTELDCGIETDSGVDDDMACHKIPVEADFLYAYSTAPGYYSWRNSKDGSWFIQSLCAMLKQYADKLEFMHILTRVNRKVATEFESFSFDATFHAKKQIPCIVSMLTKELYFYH
# [4] = system: HeLa; test: ATP-based viability loss in HeLa cells – cell-based, CellTiter-Glo luminescence, cherry-pick samples, cytotoxicity control for MITF activator project, dose response (AID 540259); format: functional; conditions: Homo sapiens
# [5] = target: 5-hydroxytryptamine receptor 5A (Homo sapiens, UniProt P47898); test: Counterscreen for agonists of OPRM1-OPRD1 heterodimerization: luminescence-based cell-based high throughput dose response assay to identify agonists of 5-hydroxytryptamine (serotonin) 5A receptor (HTR5A). [Related pubchem assays (depositor defined):AID504326, AID504355, AID504692, AID504904, AID504905]; format: functional
# [6] = target: T4, Short transient receptor potential channel 4 (Mus musculus, UniProt Q9QUQ5); test: calcium entry via TRPC4 opening agents – cell-based, HEK293 TRPC4/mu-opioid, Fluo-4 calcium, dose response (AID 434937); format: functional
# T4 sequence (Q9QUQ5 whole entry): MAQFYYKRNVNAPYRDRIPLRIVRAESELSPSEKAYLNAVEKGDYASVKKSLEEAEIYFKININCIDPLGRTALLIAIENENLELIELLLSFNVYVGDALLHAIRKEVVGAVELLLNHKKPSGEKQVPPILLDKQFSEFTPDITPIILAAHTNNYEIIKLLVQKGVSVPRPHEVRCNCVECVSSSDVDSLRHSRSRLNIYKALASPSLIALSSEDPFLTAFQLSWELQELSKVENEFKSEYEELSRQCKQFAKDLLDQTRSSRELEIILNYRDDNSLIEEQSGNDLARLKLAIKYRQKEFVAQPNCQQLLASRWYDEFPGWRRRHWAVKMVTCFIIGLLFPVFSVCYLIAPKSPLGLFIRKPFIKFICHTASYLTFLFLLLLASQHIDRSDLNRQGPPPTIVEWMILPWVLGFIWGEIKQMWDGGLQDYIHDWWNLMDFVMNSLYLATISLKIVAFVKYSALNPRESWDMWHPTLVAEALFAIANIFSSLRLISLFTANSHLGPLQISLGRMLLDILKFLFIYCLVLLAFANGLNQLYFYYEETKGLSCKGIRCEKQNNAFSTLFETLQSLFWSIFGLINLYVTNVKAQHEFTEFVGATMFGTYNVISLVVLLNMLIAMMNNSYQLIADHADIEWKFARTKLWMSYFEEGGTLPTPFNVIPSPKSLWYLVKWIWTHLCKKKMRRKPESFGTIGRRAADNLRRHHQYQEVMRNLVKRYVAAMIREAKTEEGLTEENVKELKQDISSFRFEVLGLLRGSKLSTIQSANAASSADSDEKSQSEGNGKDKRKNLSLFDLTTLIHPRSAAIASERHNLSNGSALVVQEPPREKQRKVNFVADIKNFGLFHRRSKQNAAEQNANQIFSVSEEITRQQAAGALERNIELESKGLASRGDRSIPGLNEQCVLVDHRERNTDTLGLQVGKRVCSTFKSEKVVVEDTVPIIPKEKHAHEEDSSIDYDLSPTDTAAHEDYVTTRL
# [7] = target: Delta-type opioid receptor (Homo sapiens, UniProt P41143); test: Counterscreen for agonists of heterodimerization of the mu 1 (OPRM1) and delta 1 (OPRD1) opioid receptors: Luminescence-based cell-based high throughput dose response assay to identify agonists of OPRD1 homodimerization. [Related pubchem assays (depositor defined):AID504326, AID504355, AID504692, AID504904, AID504905]; format: functional
# [8] = target: Mu-type opioid receptor (Homo sapiens, UniProt P35372); test: Counterscreen for agonists of heterodimerization of the mu 1 (OPRM1) and delta 1 (OPRD1) opioid receptors: Luminescence-based cell-based high throughput dose response assay to identify agonists of OPRM1 homodimerization.; format: functional;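 also: U2OS cells expressing OPRM1 and beta-arrestin as split beta-galactosidase partners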
# [9] = target: T5, Serine/threonine-protein phosphatase (Candida dubliniensis (strain CD36 / CBS 7987 / NCPF 3949 / NRRLY-17841) (Yeast), UniProt B9W6M3); test: blockers of CaCl2-induced CDRE-lacZ signaling – S. cerevisiae, luminescence, secondary, dose response (AID 2388); format: functional, cell-based;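 also: yeast reporter cells carrying a calcineurin-responsive lacZ construct stimulated with calcium chloride; luminescent beta-galactosidase reporter signal in whole cells rather than isolated phosphatase activity; potency for inhibition where a drop in reporter signal means calcineurin blockade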
# T5 sequence (B9W6M3 whole entry): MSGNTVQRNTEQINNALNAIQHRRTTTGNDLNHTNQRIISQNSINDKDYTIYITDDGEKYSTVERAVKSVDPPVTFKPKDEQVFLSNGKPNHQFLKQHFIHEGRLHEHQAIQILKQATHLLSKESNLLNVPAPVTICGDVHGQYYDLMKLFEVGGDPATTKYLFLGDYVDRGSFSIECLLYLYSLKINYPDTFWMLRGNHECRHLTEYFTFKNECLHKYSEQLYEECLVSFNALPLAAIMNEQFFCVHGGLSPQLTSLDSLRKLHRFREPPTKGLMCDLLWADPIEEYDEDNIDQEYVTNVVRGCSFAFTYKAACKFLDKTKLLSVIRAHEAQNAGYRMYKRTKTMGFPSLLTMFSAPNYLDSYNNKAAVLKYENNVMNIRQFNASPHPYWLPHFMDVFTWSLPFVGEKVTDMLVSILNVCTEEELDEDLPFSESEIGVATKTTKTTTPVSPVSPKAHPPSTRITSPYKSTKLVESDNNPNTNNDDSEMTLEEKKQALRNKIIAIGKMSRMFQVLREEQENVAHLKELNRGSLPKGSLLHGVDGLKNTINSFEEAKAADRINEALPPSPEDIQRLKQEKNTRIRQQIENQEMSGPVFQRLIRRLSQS
# [10] = NIH-3T3 fibroblast cytotoxicity, dose response, cytotoxicity control, cell-based, fluorescence, Alamar Blue, secondary assay (AID 2327); format: functional;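 also: NIH-3T3 mouse fibroblasts cultured with fluconazole at 8 µg/mL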
# [11] = target: T6, Corticotropin-releasing factor receptor 2/Corticotropin-releasing factor-binding protein (Homo sapiens, UniProt P24387+Q13324); test: Dose Response confirmation of uHTS hits for small molecule antagonists of the CRF-binding protein and CRF-R2 receptor complex.; format: functional; conditions: read-out: IC50_Mean
# T6 sequence (Q13324 whole entry): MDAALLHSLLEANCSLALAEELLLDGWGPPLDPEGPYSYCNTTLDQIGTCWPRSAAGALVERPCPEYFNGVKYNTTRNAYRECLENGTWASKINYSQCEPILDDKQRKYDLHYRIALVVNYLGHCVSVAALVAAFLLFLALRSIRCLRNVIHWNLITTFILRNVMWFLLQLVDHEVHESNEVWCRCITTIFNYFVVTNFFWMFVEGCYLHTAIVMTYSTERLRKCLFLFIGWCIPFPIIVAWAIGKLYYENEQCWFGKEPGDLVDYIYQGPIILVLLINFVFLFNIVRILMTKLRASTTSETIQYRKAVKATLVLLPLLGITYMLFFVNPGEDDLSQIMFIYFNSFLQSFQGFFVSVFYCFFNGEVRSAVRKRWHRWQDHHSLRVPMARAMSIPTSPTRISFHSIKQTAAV
# T6 sequence (P24387 whole entry): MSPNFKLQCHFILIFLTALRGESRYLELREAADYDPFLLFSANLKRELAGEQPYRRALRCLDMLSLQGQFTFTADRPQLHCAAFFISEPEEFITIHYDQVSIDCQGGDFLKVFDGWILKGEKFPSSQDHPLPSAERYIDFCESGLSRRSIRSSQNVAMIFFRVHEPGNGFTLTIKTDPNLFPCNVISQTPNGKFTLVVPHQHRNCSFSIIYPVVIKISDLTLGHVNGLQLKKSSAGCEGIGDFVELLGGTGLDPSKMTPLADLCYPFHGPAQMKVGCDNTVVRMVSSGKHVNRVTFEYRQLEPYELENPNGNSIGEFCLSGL
# [12] = target: ATP-dependent molecular chaperone HSP82 (Candida albicans (strain WO-1) (Yeast), UniProt C4YTQ8); test: steroid-induced GRE reporter decrease in yeast – S. cerevisiae, luminescence, Hsp90 inhibitor project, dose response (AID 2400); format: functional, cell-based;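 also: beta-galactosidase luminescence from glucocorticoid response element reporter as proxy for Hsp90 function; inhibitor potency where signal loss means Hsp90 inhibition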
# [13] = fluconazole-exposed Candida albicans growth modulators – fluorescence, retest, confirmation (AID 2467); format: functional, cell-based
# [14] = target: T6, Corticotropin-releasing factor receptor 2/Corticotropin-releasing factor-binding protein; test: activators of CRF receptor 2 with binding protein – uHTS hits, confirmation (AID 602473); format: functional; conditions: read-out: EC50_Mean
# [15] = system: H4; test: Luminescence Cell-Based Dose Response HTS to Identify Activators of 5'UTR Stem-Loop Driven Prion Protein mRNA Translation in H4 Neuroglioblastoma Cells. [Related pubchem assays: 1829 (Project Summary), 1814 (Primary HTS)]; format: functional; conditions: Homo sapiens
# [16] = Luminescence Cell-Based Dose Response HTS to Identify Activators of Luciferase Translation or Activity in H4 […] Cells. [Related pubchem assays: 1829 (Project Summary), 1814 (Primary HTS)]; format: functional
# Chain of Delta-type opioid receptor (P41143 whole entry): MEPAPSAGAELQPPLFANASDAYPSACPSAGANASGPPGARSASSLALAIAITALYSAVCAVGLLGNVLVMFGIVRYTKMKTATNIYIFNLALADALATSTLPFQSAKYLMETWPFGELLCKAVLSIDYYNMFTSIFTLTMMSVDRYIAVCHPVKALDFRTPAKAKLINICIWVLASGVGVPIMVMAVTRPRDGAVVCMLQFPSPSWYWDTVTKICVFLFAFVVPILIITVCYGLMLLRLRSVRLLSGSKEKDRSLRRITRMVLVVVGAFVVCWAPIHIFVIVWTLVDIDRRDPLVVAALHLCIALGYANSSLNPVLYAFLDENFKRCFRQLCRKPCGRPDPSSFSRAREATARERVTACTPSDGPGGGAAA
# Chain of 5-hydroxytryptamine receptor 5A (P47898 whole entry): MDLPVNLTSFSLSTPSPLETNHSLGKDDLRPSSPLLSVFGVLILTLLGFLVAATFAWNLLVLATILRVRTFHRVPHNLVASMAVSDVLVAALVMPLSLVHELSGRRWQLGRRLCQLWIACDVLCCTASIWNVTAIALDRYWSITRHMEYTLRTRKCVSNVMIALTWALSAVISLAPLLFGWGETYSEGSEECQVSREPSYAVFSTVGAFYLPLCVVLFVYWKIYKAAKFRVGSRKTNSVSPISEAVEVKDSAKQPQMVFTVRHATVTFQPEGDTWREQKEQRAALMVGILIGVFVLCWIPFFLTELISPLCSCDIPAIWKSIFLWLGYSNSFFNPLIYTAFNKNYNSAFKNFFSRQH
# Chain of Mu-type opioid receptor (P35372 whole entry): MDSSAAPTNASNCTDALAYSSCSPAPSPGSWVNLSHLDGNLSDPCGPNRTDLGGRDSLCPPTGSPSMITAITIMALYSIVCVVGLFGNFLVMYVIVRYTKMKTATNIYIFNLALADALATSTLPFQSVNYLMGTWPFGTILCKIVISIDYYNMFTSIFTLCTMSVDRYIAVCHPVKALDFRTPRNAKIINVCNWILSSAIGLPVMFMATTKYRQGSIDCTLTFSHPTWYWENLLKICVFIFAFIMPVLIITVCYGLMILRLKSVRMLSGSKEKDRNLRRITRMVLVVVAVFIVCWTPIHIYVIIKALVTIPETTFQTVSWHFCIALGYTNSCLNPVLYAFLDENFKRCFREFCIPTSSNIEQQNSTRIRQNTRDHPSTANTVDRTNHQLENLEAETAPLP
# Chain of ATP-dependent molecular chaperone HSP82 (C4YTQ8 whole entry): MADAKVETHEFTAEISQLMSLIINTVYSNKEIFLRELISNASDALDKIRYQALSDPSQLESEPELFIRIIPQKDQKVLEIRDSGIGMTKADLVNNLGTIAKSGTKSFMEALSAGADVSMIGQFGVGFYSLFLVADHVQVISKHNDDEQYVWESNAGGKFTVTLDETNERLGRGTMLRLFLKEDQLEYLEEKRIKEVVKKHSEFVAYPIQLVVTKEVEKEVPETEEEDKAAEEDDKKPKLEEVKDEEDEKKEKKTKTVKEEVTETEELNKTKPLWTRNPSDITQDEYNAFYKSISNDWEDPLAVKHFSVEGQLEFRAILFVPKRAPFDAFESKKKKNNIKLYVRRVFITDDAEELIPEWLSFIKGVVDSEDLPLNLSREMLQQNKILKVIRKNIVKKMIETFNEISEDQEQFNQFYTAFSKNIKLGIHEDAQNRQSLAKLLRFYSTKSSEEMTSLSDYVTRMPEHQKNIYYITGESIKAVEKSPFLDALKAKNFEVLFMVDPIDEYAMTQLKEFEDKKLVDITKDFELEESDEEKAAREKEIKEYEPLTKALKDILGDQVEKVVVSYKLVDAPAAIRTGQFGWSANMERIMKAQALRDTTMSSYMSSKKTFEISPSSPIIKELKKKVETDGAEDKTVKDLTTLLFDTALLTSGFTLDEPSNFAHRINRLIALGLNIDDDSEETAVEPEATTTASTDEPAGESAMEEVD
smiles,measurement,setting,value
CCCCc1ccc(Nc2ncccc2C#N)cc1,IC50,[1],17.2 µM (active)
same,IC50,[2],33.1 µM (active)
same,IC50,[3],21.3 µM (active)
COc1cc(OC)c2c(-c3cccc(/C=C/c4ccc(F)cc4)c3)cc(=O)oc2c1,AC50,[4],165 µM (active)
Cc1cc(C)cc(C(=O)N(CCc2ccccc2)C2=CC3CCC(C2)N3C)c1 (stereo not drawn),EC50,[5],> 92.5 µM (inactive)
same,EC50,[6],0.267 µM (active)
same,EC50,[7],> 92.5 µM (inactive)
same,EC50,[8],43.9 µM (inactive)
Cc1nn(-c2ccccc2)c(Cl)c1/C=C/C(=O)c1ccc(O)cc1,EC50,[9],> 180 µM (inactive)
same,EC50,[10],> 150 µM (inactive)
same,IC50,[11],> 47.1 µM (inactive)
same,EC50,[12],18.9 µM (active)
same,EC50,[13],1.1 µM (active)
same,EC50,[14],> 53 µM (inactive)
COC(=O)c1sccc1NC(=O)CCC1CCCCC1,IC50,[1],62.8 µM (active)
same,IC50,[2],> 100 µM (inactive)
same,IC50,[3],27.9 µM (active)
O=S(=O)(Cc1cc(-c2ccccc2Cl)no1)c1ccccc1,AC50,[4],51.8 µM (active)
COc1cc(NC(=O)c2cccc(C)c2)ccc1NC(=O)c1cc2ccccc2o1,EC50,[5],> 92.4 µM (inactive)
same,EC50,[7],> 92.4 µM (inactive)
same,EC50,[8],> 92.4 µM (inactive)
CN(C)C(CNC(=O)C1CC(=O)N(Cc2ccccc2)C1)c1ccccc1 (stereo not drawn),EC50,[5],> 92.5 µM (inactive)
same,EC50,[6],1.33 µM (active)
same,EC50,[7],> 92.5 µM (inactive)
same,EC50,[8],> 92.5 µM (inactive)
Clc1cnc(N/N=C/c2cccs2)c(Cl)c1,AC50,[4],62.4 µM (active)
same,EC50,[15],0.136 µM (active)
same,EC50,[16],0.411 µM (active)
